Source: ChEMBL document CHEMBL4346757, “Synthesis and biological evaluation of 7-methoxy-1-(3,4,5-trimethoxyphenyl)-4,5-dihydro-2H-benzo[e]indazoles as new colchicine site inhibitors” (Bioorg Med Chem Lett, 2019)

Legend:
[1] = molecular target: Tubulin (Bos taurus, UniProt Q6B856+Q862L2+Q862F3); assay: Inhibition of bovine brain tubulin polymerization measured every 1 min for 60 mins by turbidimetry based microplate reader analysis
[2] = system: COLO 205; assay: Antiproliferative activity against human COLO205 cells assessed as reduction in cell viability by MTT assay; assay type: functional, cell-based
[3] = system: HCT-116; assay: Antiproliferative activity against human HCT116 cells assessed as reduction in cell viability by MTT assay; assay type: functional, cell-based

Compound	IC50 ([1]; read-out: IC50)	IC50 [2]	IC50 [1]	IC50 [3]
COc1ccc2c(c1)CCc1nn(-c3ccccc3)c(-c3cc(OC)c(OC)c(OC)c3)c1-2	–	> 10000 nM	> 10000 nM	5240 nM
CCOC(=O)Cn1nc2c(c1-c1cc(OC)c(OC)c(OC)c1)-c1ccc(OC)cc1CC2	–	8240 nM	> 10000 nM	> 10000 nM
COc1ccc(/C=C\c2cc(OC)c(OC)c(OC)c2)cc1O [COMBRETASTATIN A4]	–	1 nM	–	1 nM

Next, values leading:

IC50 ([1]; read-out: IC50)	IC50 [2]	IC50 [1]	IC50 [3]	Compound
6600 nM	37 nM	–	–	COc1ccc(-c2[nH]nc3c2-c2cc(OC)c(OC)c(OC)c2CC3)cc1
–	560 nM	> 10000 nM	1200 nM	COc1ccc2c(c1)CCc1nn(CCO)c(-c3cc(OC)c(OC)c(OC)c3)c1-2
–	19 nM	1500 nM	1 nM	COc1ccc2c(c1)CCc1nn(C)c(-c3cc(OC)c(OC)c(OC)c3)c1-2
